Target: T1, RORγ (Homo sapiens, UniProt P51449)
T1 construct: expressed in transfected cells; host or cells: 293FT cells (Invitrogen), expression vector pFN26A (Promega)
T1 sequence (P51449 269-508 limits assumed): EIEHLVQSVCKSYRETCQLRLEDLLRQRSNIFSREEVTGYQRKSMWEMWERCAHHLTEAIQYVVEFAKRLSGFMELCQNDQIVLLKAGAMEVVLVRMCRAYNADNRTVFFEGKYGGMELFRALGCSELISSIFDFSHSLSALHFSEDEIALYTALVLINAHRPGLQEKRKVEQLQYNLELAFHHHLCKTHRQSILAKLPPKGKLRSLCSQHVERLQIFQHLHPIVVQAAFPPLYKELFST
Assay: RORγ GAL4 reporter gene assay
Format: cell-based
Details: inhibition of RORγ activity, GAL4-RORγ-LBD luciferase reporter in 293FT cells, overnight incubation; read-out: mean pIC50 (converted)
Experimental: Example inhibitors 1-166 were tested for their ability to inhibit RORγ activity in a RORγ GAL4 reporter gene assay. The assay procedure and results are described below.
RORγ GAL4 Reporter Gene Assay Description
A GAL4 one-hybrid reporter system employing luciferase readout was established to determine inhibition of RORγ in 293FT cells. The RORγ ligand-binding domain (LBD) was fused to the yeast GAL4 DNA binding domain (DBD) and placed under the control of the human cytomegalovirus (CMV) immediate early promoter, using expression vector pFN26A (Promega) and standard recombinant DNA cloning methods. To serve as a control in the assay, a similar vector was generated in which the GAL4-DBD was fused to Herpes simplex virus protein 16 (VP16), a constitutive transcriptional activator.
To monitor the inhibitory effect of compounds on RORγ, a transcriptional reporter construct was used. The pGL4.35 vector (Promega) contains nine copies of the GAL4 Upstream Activator Sequence (UAS). This sequence drives the transcription of the luciferase reporter gene luc2P in response to binding of a fusion protein containing the GAL4 DNA binding domain, as for example expressed by the GAL4-RORγ-LBD and GAL4-VP16 expression vectors described above. To allow a GAL4 fusion protein to drive the expression of the luciferase reporter, the pGL4.35 expression vector and the appropriate GAL4 fusion protein expression vector were bulk transfected in the 293FT cells using standard transfection techniques.
The day after transfection, cells were plated into 96 well plates, test compound was added and the plates were incubated overnight. Subsequently, the firefly luciferase activity was quantified using luciferase detection reagent and luminescence readout.
Detailed Assay Description
293FT cells (Invitrogen) were transfected with a GAL4 fusion protein expression vector (as described above) and the transcriptional reporter construct (pGL4.35, Promega). 60 μL of TransIT-293 transfection reagent (Mirus Bio) was added drop wise to 1500 μl Opti-MEM I Reduced Serum Medium (Invitrogen) and incubated at room temperature (RT) for 5 to 20 minutes. 1500 μL of this reagent mixture was added to 5 μg of GAL4 fusion protein expression vector and 5 μg of the transcriptional reporter construct, and incubated at RT for 20 minutes.
To harvest 293FT cells from a T75 flask, first the culture medium was taken off the cells. Subsequently, the cells were washed with Phosphate Buffered Saline (PBS) (Lonza), after which the PBS was removed. To dissociate the cells, 1 ml of TrypLE Express (Invitrogen) was added to the flask, followed by incubation at RT until the cells visually started to detach. Cells were collected in 5 mL of assay medium (DMEM culture medium (Lonza), 10% dialyzed FBS (Invitrogen) and Pen/Strep (Lonza)) to achieve a single cell suspension. 10×10^6 cells were spun down and re-suspended in 10 mL of assay medium. Subsequently, the cell suspension was added to the transfection mix tube, and then transferred as a whole to a T75 flask (Greiner), followed by overnight (16-24 hours) incubation at 37° C. and 5% CO2.
For compound screening, the cells were harvested (as described above) and counted. 13×10^6 cells were spun down, the supernatant was aspirated and the cells were re-suspended in 17.3 mL of assay medium obtaining a cell suspension of 0.75×10^6 cells/mL. 80 μL of cell suspension (60,000 cells) was plated per well into a white, flat bottom, tissue culture treated, 96 well screening plates (Greiner).
Test compounds were diluted, starting from a 10 mM dimethylsulfoxide (DMSO) stock solution, to serial dilutions in DMSO at 500× the final test concentration. Subsequently, these solutions were diluted to 5× the final test concentration in two 10-fold-dilution steps in assay medium. The final DMSO concentration of the 5× test compound solution was 1%. […]

`CC(C)(CO)N(C(=O)c1ccc(NC(=O)Cc2ccc(S(=O)(=O)CC3CC3)cc2)cc1)c1ccccc1` [Example 138, 4-[2-(4-cyclopropylmethanesulfonylphenyl)acetamido]-N-(1-hydroxy-2-methylpropan-2-yl)-N-phenylbenzamide] and `CCCN(C(=O)c1ccc(NC(=O)Cc2ccc(S(=O)(=O)CC3CC3)cc2)cc1)c1ccccc1` [Example 19, 4-[2-(4-cyclopropylmethanesulfonylphenyl)acetamido]-N-phenyl-N-propylbenzamide] cannot be ordered by IC50: at most 100 nM for the first, at most 10 nM for the second.

`CN(C(=O)c1ccc(NC(=O)Cc2ccc(S(=O)(=O)CC3CC3)cc2)cc1)c1ccccn1` [Example 17, 4-[2-(4-cyclopropylmethanesulfonylphenyl)acetamido]-N-methyl-N-(pyridin-2-yl)benzamide] and `CN(Cc1ccco1)C(=O)c1ccc(NC(=O)Cc2ccc(S(=O)(=O)CC3CC3)cc2)cc1` [Example 59, 4-[2-(4-cyclopropylmethanesulfonylphenyl)acetamido]-N-(furan-2-ylmethyl)-N-methylbenzamide] cannot be ordered by IC50: at most 100 nM for the first, at most 100 nM for the second.

`COc1ccccc1N(C)C(=O)c1ccc(NC(=O)Cc2ccc(S(=O)(=O)CC3CC3)cc2)cc1F` [Example 124, 4-[2-(4-cyclopropylmethanesulfonylphenyl)acetamido]-2-fluoro-N-(2-methoxyphenyl)-N-methylbenzamide] and `CN(C(=O)c1ccc(NC(=O)Cc2ccc(S(=O)(=O)CC3CC3)cc2)cc1Cl)c1ccccc1F` [Example 127, 2-chloro-4-[2-(4-cyclopropylmethanesulfonylphenyl)acetamido]-N-(2-fluorophenyl)-N-methylbenzamide] cannot be ordered by IC50: at most 10 nM for the first, at most 10 nM for the second.

`O=C(Cc1ccc(S(=O)(=O)CC2CC2)cc1)Nc1ccc(C(=O)N(C2CCC2)C2CCC2)cc1` [Example 27, N,N-dicyclobutyl-4-[2-(4-cyclopropylmethanesulfonylphenyl)acetamido]benzamide] and `CN(C(=O)c1ccc(NC(=O)Cc2ccc(S(=O)(=O)CC3CC3)cc2)cc1)C1CCCCC1` [Example 34, N-cyclohexyl-4-[2-(4-cyclopropylmethanesulfonylphenyl)acetamido]-N-methylbenzamide] cannot be ordered by IC50: at most 100 nM for the first, at most 1000 nM for the second.

`CN(C(=O)c1ccc(NC(=O)Cc2ccc(S(=O)(=O)NC3CC3)cc2)cc1)c1ccccc1` [Example 44, 4-{2-[4-(cyclopropylsulfamoyl)phenyl]acetamido}-N-methyl-N-phenylbenzamide] and `CCN(C(=O)c1ccc(NC(=O)Cc2ccc(S(=O)(=O)NC3CC3)cc2)cc1)c1ccccc1` [Example 43, 4-{2-[4-(cyclopropylsulfamoyl)phenyl]acetamido}-N-ethyl-N-phenylbenzamide] cannot be ordered by IC50: at most 100 nM for the first, at most 10 nM for the second.

`Cc1cccc(C)c1NC(=O)c1ccc(NC(=O)Cc2ccc(S(=O)(=O)CC3CC3)cc2)cc1` [Example 75, 4-[2-(4-cyclopropylmethanesulfonylphenyl)acetamido]-N-(2,6-dimethylphenyl) benzamide] and `O=C(Cc1ccc(S(=O)(=O)CC2CC2)cc1)Nc1ccc(C(=O)Nc2c(Cl)cccc2Cl)cc1` [Example 147, 4-[2-(4-cyclopropylmethanesulfonylphenyl)acetamido]-N-(2,6-dichlorophenyl)benzamide] cannot be ordered by IC50: at most 100 nM for the first, at most 1000 nM for the second.

`CCN(C(=O)c1ccc(NC(=O)Cc2ccc(S(=O)(=O)NC3CC3)cc2)cc1)c1nc(C)c(C)s1` [Example 107, 4-{2-[4-(cyclopropylsulfamoyl)phenyl]acetamido}-N-(4-methyl-5-methyl-1,3-thiazol-2-yl)-N-ethyl-benzamide] and `CCCN(C(=O)c1ccc(NC(=O)Cc2ccc(S(=O)(=O)NC3CC3)cc2)cc1)c1cc(C)on1` [Example 93, 4-{2-[4-(cyclopropylsulfamoyl)phenyl]acetamido}-N-(5-methyl-1,2-oxazol-3-yl)-N-propylbenzamide] cannot be ordered by IC50: at most 100 nM for the first, at most 10 nM for the second.

`CCN(C(=O)c1ccc(NC(=O)Cc2ccc(S(=O)(=O)NC3CC3)cc2)cc1)c1cccnc1` [Example 50, 4-{2-[4-(cyclopropylsulfamoyl)phenyl]acetamido}-N-ethyl-N-(pyridin-3-yl)benzamide] and `CCN(C(=O)c1ccc(NC(=O)Cc2ccc(S(=O)(=O)NC3CC3)cc2)nc1)c1ccccc1` [Example 54, 6-{2-[4-(cyclopropylsulfamoyl)phenyl]acetamido}-N-ethyl-N-phenylpyridine-3-carboxamide] cannot be ordered by IC50: at most 1000 nM for the first, at most 1000 nM for the second.

`O=C(Cc1ccc(S(=O)(=O)CC2CC2)cc1)Nc1ccc(C(=O)N2CCCCc3ccccc32)cc1` [Example 63, 2-(4-cyclopropylmethanesulfonylphenyl)-N-[4-(2,3,4,5-tetrahydro-1H-1-benzazepine-1-carbonyl)phenyl]acetamide] and `O=C(Cc1ccc(S(=O)(=O)CC2CC2)cc1)Nc1ccc(C(=O)N2CCCC(c3ccccc3)C2)cc1` (centres unmarked) [Example 48, 2-(4-cyclopropylmethanesulfonylphenyl)-N-[4-(3-phenylpiperidine-1-carbonyl)phenyl]acetamide] cannot be ordered by IC50: at most 10 nM for the first, at most 100 nM for the second.

`CC(C)(C)N(C(=O)c1ccc(NC(=O)Cc2ccc(S(=O)(=O)CC3CC3)cc2)c(F)c1)c1ccccc1` [Example 134, N-tert-butyl-4-[2-(4-cyclopropylmethanesulfonylphenyl)acetamido]-3-fluoro-N-phenylbenzamide] and `CC1(N(C(=O)c2ccc(NC(=O)Cc3ccc(S(=O)(=O)CC4CC4)cc3)cc2)c2ccccc2)CC1` [Example 142, 4-[2-(4-cyclopropylmethanesulfonylphenyl)acetamido]-N-(1-methylcyclopropyl)-N-phenylbenzamide] cannot be ordered by IC50: at most 10 nM for the first, at most 10 nM for the second.

`CCN(C(=O)c1ccc(NC(=O)Cc2ccc(S(=O)(=O)CC3CC3)nc2)cc1F)c1ccccc1` [Example 156, 4-[2-(6-cyclopropylmethanesulfonylpyridin-3-yl)acetamido]-N-ethyl-2-fluoro-N-phenylbenzamide] and `O=C(Cc1ccc(S(=O)(=O)CC2CC2)nc1)Nc1ccc(C(=O)N(CC(F)(F)F)c2ccccc2)cc1` [Example 155, 4-[2-(6-cyclopropylmethanesulfonylpyridin-3-yl)acetamido]-N-phenyl-N-(2,2,2-trifluoroethyl)benzamide] cannot be ordered by IC50: at most 100 nM for the first, at most 10 nM for the second.

`CC(C)(CN1CCOCC1)NC(=O)c1ccc(NC(=O)Cc2ccc(S(=O)(=O)CC3CC3)cc2)cc1` [Example 60, 4-[2-(4-cyclopropylmethanesulfonylphenyl)acetamido]-N-[2-methyl-1-(morpholin-4-yl)propan-2-yl]benzamide] and `COc1ccccc1[C@H](C)NC(=O)c1ccc(NC(=O)Cc2ccc(S(=O)(=O)CC3CC3)cc2)cc1` [Example 70, 4-[2-(4-cyclopropylmethanesulfonylphenyl)acetamido]-N-[(1S)-1-(2-methoxyphenyl)ethyl]benzamide] cannot be ordered by IC50: at most 1000 nM for the first, at most 1000 nM for the second.

`N#CC(NC(=O)c1ccc(NC(=O)Cc2ccc(S(=O)(=O)CC3CC3)cc2)cc1)c1cccs1` (centres unmarked) [Example 72, N-[cyano(thiophen-2-yl)methyl]-4-[2-(4-cyclopropylmethanesulfonylphenyl)acetamido]benzamide] and `CCN(C(=O)c1ccc(NC(=O)Cc2ccc(S(=O)(=O)CC3CC3)cc2)cc1Cl)c1ccccc1C` [Example 129, 2-chloro-4-[2-(4-cyclopropylmethanesulfonylphenyl)acetamido]-N-ethyl-N-(2-methylphenyl)benzamide] cannot be ordered by IC50: at most 1000 nM for the first, at most 10 nM for the second.
